From PubChem BioAssay (NCI)
Where “and” joins values, the source holds several entries; their conditions need not be identical. Identical values can stand only once.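 Values below derive from 48-hour exposures of cells grown in 96-well plates, with endpoints linearly interpolated between the two concentrations bracketing the appropriate inhibition level. Abbreviation: GI50, concentration required for 50% inhibition of growth. TGI: total growth inhibition.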

Each compound was assayed on SK-MEL-28 melanoma (assay: DTP human tumour cell line panel, 48 h).

Row | Compound | TGI
1 | c1ccc2c3[nH]c(c2c1)=Nc1ccc(cc1)-c1nc2cc(ccc2o1)N=c1[nH]c(c2ccccc12)=Nc1ccc2nc(oc2c1)-c1ccc(cc1)N=3 | > 100 µM
2 | CC(C)=CCC[C@@H](C)c1c(O)c(O)c(C)c2nccnc12 | > 100 µM
3 | Cc1ccc(-c2cc(-c3ccco3)c(C#N)c(=S)n2C2OC(CO)C(O)C(O)C2O)cc1 (configuration not stated) | > 100 µM
4 | O=C(OCc1ccccc1)N1CCNCCN(C(=O)OCc2ccccc2)CCNCC1 | 45.3 µM
5 | O=C(Cc1ccc(O)c(O)c1)NCc1c[nH]c2ccccc12 | > 100 µM
6 | O=S(=O)(c1ccccc1)c1cccc2c1NCCC2 | > 100 µM
7 | COc1cccc(C2SC(N)=Nc3c2c(C)nn3C(=O)c2ccccc2O)c1 (configuration not stated) | > 10 µM

These compounds were tested on PC-3 prostate (assay: DTP human tumour cell line panel, 48 h).

Row | Compound | TGI | GI50
8 | CCOC(=O)c1c(CN2CCCC2)n(-c2ccccc2)c2cc(Br)c(O)cc12 | 48.5 µM | –
9 | COc1cccc(Nc2nc(-c3cccs3)nc3cc(OC)c(OC)cc23)c1 | 92.7 µM | –
10 | Nn1c(-c2ccccc2)n[nH]c1=O | > 100 µM | –
11 | Nn1c(Nc2ccc(S(=O)(=O)Nc3ncccn3)cc2)nnc(/C=C/c2c(O)ccc3ccccc23)c1=O | > 100 µM | –
12 | Cc1cc(-c2nc3ccc(F)cc3s2)ccc1NC(=O)[C@H](C)N | 24.3 µM | –
13 | Cc1cc(Nc2ccc(S(=O)(=O)O)c3cc(S(=O)(=O)O)cc(S(=O)(=O)O)c23)c2ccccc2n1 | > 100 µM | –
14 | Cc1cc(C)nc(NS(=O)(=O)c2ccc(NC(=O)c3ccc4nc5ccccc5c(Nc5ccc(S(N)(=O)=O)cc5)c4c3)cc2)n1 | > 100 µM | –
15 | Nc1c(-c2ccc(Cl)c(Cl)c2)c2ccc([N+](=O)[O-])cc2c(=O)n1-c1nc2ccccc2s1 | > 100 µM | –
16 | CC1(C(=O)O)CCC2(C)CCC3(C)C(=CC(=O)C4C5(C)CCC(O)C(C)(C)C5CCC43C)C2C1 (configuration not stated) | > 100 µM | –
17 | COC(=O)c1c(C)nc2c1cc(O)c1[nH]c(C)c(C)nc12 | > 100 µM | –
18 | Cn1c2ccc3cc2c(=S)c2cc(ccc21)OCCOCCOCCOCCOCCOCCO3 | > 10 µM | –
19 | O=[N+]([O-])c1cc(C=NC23CC4CC(CC(C4)C2)C3)ccc1Cl | 47.5 µM | –
20 | COc1cc(S(=O)(=O)Nc2nc(-c3ccc(N4C(=O)C(CC(=O)O)SC4c4cccs4)cc3)cs2)ccc1Cl (configuration not stated) | > 100 µM | –
21 | CCCCCC1=CC(=O)C1(Cl)Cl | 42.1 µM | –
22 | CC(=O)N(C(=O)CC(=O)N1N=C(c2ccccc2)C(N=Nc2ccccc2[N+](=O)[O-])C1=O)c1ccc(Cl)cc1 (configuration not stated) | > 10 µM | –
23 | CC(=O)N1C(C(=O)NC2CCCCC2)CSC1c1ccccc1 (configuration not stated) | > 100 µM | –
24 | Oc1ccccc1CNCc1nc2ccccc2[nH]1 | > 100 µM | –
25 | COc1ncc(/C=C2\OC(=O)c3ccccc32)c(OC)n1 | > 100 µM | –
26 | CC1(C)O[C@H]2OC(CO[Si](C)(C)C(C)(C)C)C(N=[N+]=[N-])[C@H]2O1 (some centres not stated) | 37 µM | –
27 | C[C@]12CCC3C4=C(CCC3C1CCC2=O)C(=O)[C@H]1O[C@H]1C4=O (some centres not stated) | 11.5 µM | –
28 | O=[N+]([O-])c1ccc(Cl)cc1N/N=C/c1ccnc2ccccc12 | > 100 µM | –
29 | Oc1[nH]c2ccccc2c1N=Nc1nc(-c2ccc(Br)cc2)cs1 | > 100 µM | –

Row | Compound | TGI | GI50
30 | CC(C)c1cc2c(cc1S(=O)(=O)O)[C@@]1(C)CCC[C@@](C)(C(=O)O)C1CC2 (some centres not stated) | > 100 µM | –
31 | N#CC(Cc1ccccc1)N(CCC1=CCCCC1)C(c1ccccc1)c1ccccc1 (configuration not stated) | > 100 µM | –
32 | C/C(=C\CBr)CCC(Br)C(C)(C)Br (configuration not stated) | > 100 µM | –
33 | C#CCn1c(=O)c2ccccc2n(CC#C)c1=O | > 10 µM | –
34 | O=C1CCC2(c3ccc(Cl)cc3)Nc3ccncc3N12 (configuration not stated) | > 10 µM | –
35 | Oc1ccc(Cc2cc(Cc3ccc(O)cc3)cc(Cc3ccc(O)cc3)c2)cc1 | > 50 µM | –
36 | [N-]=[N+]=NC(c1ccccc1)(c1ccccc1)c1ccccc1 | 29.4 µM | –
37 | C[C@]12CC[C@H](O)CC1=CC[C@@H]1[C@@H]2CC[C@]2(C)C(=N/N)/C(=N\O)C[C@@H]12 | > 100 µM | –
38 | COc1ccc(CN2C(=O)/C(=C\c3cc(OC)c(OC)c(OC)c3)c3ccccc32)cc1 | > 100 µM | 3.14 µM
39 | CCOP(=O)(OCC)C(F)(F)c1ccc(CC(NC(=O)OC(C)(C)C)C(=O)O)cc1 (configuration not stated) | > 10 µM | –
40 | O=C(C1OC1c1ccc(Br)cc1O)C12CC3CC(CC(C3)C1)C2 (configuration not stated) | 58.7 µM | –
41 | Cc1ccccc1OC(C)C(=O)NN1C(=O)CSC1c1ccccc1 (configuration not stated) | > 100 µM | –
42 | c1ccc2c3[nH]c(c2c1)=Nc1ccc(cc1)-c1nc2cc(ccc2o1)N=c1[nH]c(c2ccccc12)=Nc1ccc2nc(oc2c1)-c1ccc(cc1)N=3 | > 100 µM | –
43 | CC(C)=CCC[C@@H](C)c1c(O)c(O)c(C)c2nccnc12 | > 100 µM | –
44 | Cc1ccc(-c2cc(-c3ccco3)c(C#N)c(=S)n2C2OC(CO)C(O)C(O)C2O)cc1 (configuration not stated) | > 100 µM | 17.4 µM and > 100 µM
45 | O=C(OCc1ccccc1)N1CCNCCN(C(=O)OCc2ccccc2)CCNCC1 | > 100 µM | –
46 | O=C(Cc1ccc(O)c(O)c1)NCc1c[nH]c2ccccc12 | > 100 µM | –
47 | COc1nncc2[nH]c(-c3ccccc3)cc12 | > 100 µM | –
48 | O=S(=O)(c1ccccc1)c1cccc2c1NCCC2 | > 100 µM | –
49 | COP(=O)(OC)C1=c2c(C)noc2=C2C=COC2C1=O (configuration not stated) | > 100 µM | –
50 | COc1cccc(C2SC(N)=Nc3c2c(C)nn3C(=O)c2ccccc2O)c1 (configuration not stated) | > 10 µM | –
